Source: patent US9243002B2, “Tetracyclic heterocycle compounds and methods of use thereof for the treatment of hepatitis C” (priority 2013, dated 2016)
Like-named read-outs stand apart in the source and are kept apart here.

Key:
HCV genotype 1a replicon = test: HCV replicon assay, genotype 1a (cell ELISA for NS3/4A); format: cell-based, hepatitis C virus
Outline: (§1)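 Stable replicon cells plated with a compound dilution series without G418 and incubated 96 h, then lysed. Replicon RNA measured indirectly by cell ELISA with an NS3/4A-specific antibody. IC50 calculated relative to DMSO control by four-parameter fit.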

HCV genotype 1b replicon = test: HCV replicon assay, genotype 1b (cell ELISA for NS3/4A); format: cell-based, hepatitis C virus
Outline: as §1

[1] = Hepatitis C virus, 96 h, read-out: 1a IC50 (nM), genotype 1a replicon cells, 96 hours incubation, NS3/4A ELISA
[2] = Hepatitis C virus, 96 h, read-out: 1b IC50 (nM), genotype 1b replicon cells, 96 hours incubation, NS3/4A ELISA
[3] = read-out: 1a IC50, genotype 1a replicon cells, 96 hours incubation, NS3/4A ELISA
[4] = read-out: 1b IC50, genotype 1b replicon cells, 96 hours incubation, NS3/4A ELISA

Q: What does the source list for `CNC(=O)c1c(-c2ccc(F)cc2)oc2cc(N(C)S(C)(=O)=O)c(-c3ccc4c(n3)-c3cc5c(F)cccc5n3C(CN3CC[C@@H](F)C3)C4)cc12` (stereo partly shown) [Example 94]?
A: IC50 (HCV genotype 1a replicon; [1]): 34 nM; IC50 (HCV genotype 1b replicon; [2]): 10.8 nM

Q: Which IC50 (HCV genotype 1a replicon; [3]) does the source give for `CNC(=O)c1c(-c2ccc(C)nc2)oc2cc(N(C)S(C)(=O)=O)c(-c3ccc4c(n3)-c3cc5c(F)cccc5n3C(CCN3CC(F)C3)C4)cc12` (stereo not shown) [Example 66, 5-(11-fluoro-6-(2-(3-fluoroazetidin-1-yl)ethyl)-5,6-dihydroindolo[1,2-h][1,7]naphthyridin-2-yl)-N-methyl-6-(N-methylmethylsulfonamido)-2-(6-methylpyridin-3-yl)benzofuran-3-carboxamide] here?
A: 13 nM

Q: And the IC50 (HCV genotype 1b replicon; [4])?
A: 11.4 nM

Q: Which IC50 (HCV genotype 1a replicon; [1]) does the source give for `CNC(=O)c1c(-c2ccc(F)cc2)oc2cc(N(C)S(C)(=O)=O)c(-c3ccc4c(n3)-c3cc5c(F)cccc5n3C(=O)CC4)cc12` [Example 74, 5-(12-fluoro-7-oxo-6,7-dihydro-5H-pyrido[2′,3′:3,4]azepino[1,2-a]indol-2-yl)-2-(4-fluorophenyl)-N-methyl-6-(N-methylmethylsulfonamido)benzofuran-3-carboxamide] here?
A: 8.2 nM

Q: What about the IC50 (HCV genotype 1b replicon; [2]) of the same compound?
A: 11.4 nM

Q: Which IC50 (HCV genotype 1a replicon; [3]) does the source give for `CNC(=O)c1c(-c2ccc(F)cc2F)oc2cc(N(C)S(C)(=O)=O)c(-c3ccc4c(n3)-c3cc5c(F)cccc5n3C(CS(C)(=O)=O)C4)cc12` (stereo not shown) [Example 59] here?
A: 5.45 nM

Q: And the IC50 (HCV genotype 1b replicon; [4])?
A: 2.9 nM

Q: Which results are given for `CNC(=O)c1c(-c2ccc(C(F)F)nc2)oc2cc(N(C)S(C)(=O)=O)c(-c3ccc4c(n3)-c3cc5c(F)cccc5n3CC4)cc12` [Example 3]?
A: IC50 (HCV genotype 1a replicon; [1]): 7.94 nM; IC50 (HCV genotype 1b replicon; [2]): 6.69 nM

Q: `CNC(=O)c1c(-c2ccc(F)cc2)oc2cc(N(C)S(C)(=O)=O)c(-c3cc4c(cn3)C(C)Cn3c-4cc4c(F)cccc43)cc12` (single isomer, unassigned) [Example 60, (R or S)-5-(11-fluoro-5-methyl-5,6-dihydroindolo[2,1-a][2,6]naphthyridin-2-yl)-2-(4-fluorophenyl)-N-methyl-6-(N-methylmethylsulfonamido)benzofuran-3-carboxamide] was tested. Which IC50 (HCV genotype 1a replicon; [3]) did it give?
A: 5 nM

Q: What about the IC50 (HCV genotype 1b replicon; [2]) of the same compound?
A: 10.1 nM

Q: How did the IC50 (HCV genotype 1a replicon; [1]) turn out when `CNC(=O)c1c(-c2ccc(F)cc2)oc2cc(N(C)S(C)(=O)=O)c(-c3ccc4ccn5c6ccc(O)nc6cc5c4n3)cc12` [Example 81] was run?
A: 196 nM

Q: And the IC50 (HCV genotype 1b replicon; [2])?
A: 33.9 nM

Q: How did the IC50 (HCV genotype 1a replicon; [1]) turn out when `CCn1cc(-c2oc3cc(N(C)S(C)(=O)=O)c(-c4ccc5c(n4)-c4cc6c(F)cccc6n4CC5)cc3c2C(=O)NC)cn1` [Example 27] was run?
A: 9.13 nM

Q: And the IC50 (HCV genotype 1b replicon; [2])?
A: 11.1 nM

Q: What does the source list for `CNC(=O)c1c(-c2ccc(F)cc2)oc2cc(N(C)S(C)(=O)=O)c(-c3ccc4c(n3)-c3cc5c(F)cccc5n3C(CS(C)(=O)=O)C4)cc12` (single isomer, unassigned) [Example 56, (R or S)-5-(11-fluoro-6-((methylsulfonyl)methyl)-5,6-dihydroindolo[1,2-h][1,7]naphthyridin-2-yl)-2-(4-fluorophenyl)-N-methyl-6-(N-methylmethylsulfonamido)benzofuran-3-carboxamide]?
A: IC50 (HCV genotype 1a replicon; [3]): 3.4 nM; IC50 (HCV genotype 1b replicon; [2]): 2 nM

Q: What does the source list for `CNC(=O)c1c(-c2ccc(F)cc2)oc2cc(N(C)S(C)(=O)=O)c(-c3ccc4ccn5c6cccc(C#N)c6cc5c4n3)cc12` [Example 83]?
A: IC50 (HCV genotype 1a replicon; [1]): 1.49 nM; IC50 (HCV genotype 1b replicon; [2]): 3.44 nM

Q: Which results are given for `CNC(=O)c1c(-c2ccc(F)cc2)oc2cc(N(C)S(C)(=O)=O)c(-c3ccc4c(n3)-c3cc5c(F)cccc5n3C(CO)C4)cc12` (stereo not shown) [Example 54]?
A: IC50 (HCV genotype 1a replicon; [3]): 1.56 nM; IC50 (HCV genotype 1b replicon; [4]): 2.25 nM
